Test system: Human CD34+ cells
Assay: In vitro development of human NK cells (hCD56+ hCD45+) from CD34+ umbilical cord blood progenitor cells
Type: cell-based
Description: FIG. 9: Human CD34^+ cells were cultured with the addition of 5 μM SR8278 at Day 4. At Day 14 and 16, percentage of hCD56^+ hCD45^+ (markers for human NK cells) cells was quantified using flow cytometry. (A) Graph showing percentage of hCD56^+ hCD45^+ cells compared to the ‘No drug’ control in different conditions. (B) Flow cytometry gating strategy for identification of human NK cells. (C) Representative flow cytometry results with percentage of NK cells shown. Results were averaged from one experiments with six repeats each and the error bars represent the mean+SD.
The hypothesis that SR8278 increases NK cells production would not have any potential therapeutic value if it was not also true for human NK cell production. Therefore, the effect of SR8278 on human NK cell production from human HPCs was examined. Human HPCs were obtained as the CD34^+ population purified from umbilical cord blood from collaborators at the Anthony Nolan Research Institute, London. Human NK cell development goes through a similar developmental pathway to mouse NK cell development. By contrast with mouse HPC culture, human CD34^+ cells were cultured straight onto EL08-1D2 stromal cells in the presence of IL-3, IL-7, FIt3L, SCF and IL-15 cytokines for 14 and 16 days before harvesting and analysis by flow cytometry. To try to optimise human NK cell production, 5 or 10 μM SR8278 were added on either day 2, 4 or 6 of the culture.
OP9-GFP stromal cells were cultured in Iscove's Modified Dulbecco's Media (IMDM) (Sigma Aldrich) supplemented with 20% Fetal Bovine Serum (FBS), and Penicillin/[…] (P/S). For experiments done on 96-well plates, OP9 stromal cells were plated at the concentration of 2000 cells/well and incubated at 37° C., 5% CO2 for 1 day before the addition of HPCs. For experiments done on 24-well plates, OP9 stromal cells were plated at the concentration of 4000 cells/well and were incubated at 37° C. 5% CO2 for 2 days prior to addition of HPCs. EL08.1D2 stromal cells were cultured in Minimum Essential Medium Eagle—Alpha Modification (Alpha-MEM) supplemented with 50% Myelocult M5300 (Stem Cell Technologies), 7.5% FBS, 50 μM β-Mercaptoethanol, 1 μM Hydrocortisone and 1% P/S (Sigma Aldrich). For human CD34^+ progenitor cell experiments, EL08.1D2 were irradiated at 3000 rads/30 Gy and plated in 96-well EmbryoMax Gelatin (Millipore)-coated plates at the concentration of 20,000 cells/well. There were cultured at 32° C., 5% CO2 overnight, before CD34^+ cells were transferred onto them.
CD34^+ umbilical cord blood progenitor cells were provided by Anthony Nolan Research Institute, University College London. These cells were isolated from whole cord blood and were cryopreserved in liquid nitrogen for storage and transport. Cells were thawed, counted and then plated on EL08.1D2 plates prepared previously at a concentration of 1000 cells/well in human NK cells differentiation medium (Alpha-MEM plus 20% Human AB serum (Invitrogen), 50 μM β-Mercaptoethanol and 1% P/S along with 5 ng/ml human-IL-3 (Peprotech), 20 ng/ml human-IL-7 (Peprotech), 10 ng/ml human-Flt3-L (Peprotech), 20 ng/ml human-SCF (Peprotech) and 10 ng/ml human-IL-15 (Peprotech). Note that human-IL-3 is only needed for the first week of culture. Cells were left in the culture at 37° C., 5% CO2 for 14 or 16 days with a change of human NK differentiation medium at day 7 and 12.
Cells to be analysed by flow cytometry were passed through 40 μm cell strainers to remove clumps and washed with PBS buffer, centrifuged at 800 g for 2 minutes and resuspended in 100 μl fluorescent activated cell sorting (FACS) buffer (PBS plus 1% BSA) with appropriate fluorochrome conjugated antibodies at a dilution of 1 in 300. […]

CCOC(=O)C1Cc2ccccc2CN1C(=O)c1ccc(SC)s1 (stereo not drawn) [SR8278, 1,2,3,4-Tetrahydro-2-[[5-(methylthio)-2-thienyl]carbonyl]-3-isoquinolinecarboxylic acid ethyl ester]
change of percentage of NK cells versus 'No drug' control (5 μM added at Day 4, harvested at Day 14): almost tripled
percentage of NK cells (5 μM added at Day 4, harvested at Day 14, 'No drug' control 5.53%): 13.7%
change of percentage of NK cells versus 'No drug' control (5 μM added at Day 4, harvested at Day 16): doubled
percentage of NK cells (5 μM added at Day 4, harvested at Day 16, 'No drug' control 21.8%): 44.3%
NK cell number (5 μM added on Day 2): clear increase
human NK cell development from human HPCs cultured in vitro (summary in Discussion): significantly increase
